According to publication PMC8945229, “Development and Biological Characterization of a Novel Selective TrkA Agonist with Neuroprotective Properties against Amyloid Toxicity” (Biomedicines, 2022):

Columns and labels:
TrkC = biological target: T1, TrkC (Homo sapiens, UniProt Q16288); experiment: TrkC phosphorylation in NIH-3T3 cells stably transfected with TrkC; assay type: cell-based; conditions: 500 nM, 30′
T1 construct: expressed in transfected cells
Experimental: For immunoprecipitation experiments PC12 or HEK293T, cells were used when at 70–80% confluent. Cells were starved of serum for 4 h and subsequently treated with 100 ng/mL NGF or 500 nM of compound ENT-A013 for 30′. Cells were then lysed in Pierce™ IP Lysis Buffer (87788, Thermo Fischer Scientific, Waltham, MA, USA) containing proteases (539138, Calbiochem, Darmstadt, Germany) and phosphatase inhibitors (524629, Calbiochem, Darmstadt, Germany). Lysates were then immunoprecipitated overnight at 4 °C with TrkA antibody (1:100, 06-574, Sigma-Aldrich, St. Louis, MO, USA) (Table S1) or p75^NTR antibody (1:100, ab6172, Abcam plc., Cambridge, UK) followed by 4 h incubation with protein G-plus agarose beads (sc-2002, Santa Cruz Biotechnology, Inc., Dallas, TX, USA). Beads were then collected, washed 3X with lysis buffer, resuspended in SDS loading buffer and subjected to Western blot against phosphorylated Tyrosine (1:1000, BAM1676, R&D Systems, Inc., Minneapolis, MN, USA) or Traf6 antibody (1:2000, ab33915, Abcam, plc., Cambridge, UK). […]
phosphorylated any of those. […] Quantification (E) […]
Supplementary Figure S3: Primary DRG neurons were cultured in the presence of ENT-A013 (500nM, supplemented every 48hrs) and a neutralizing antibody against NGF for 5 days and then neurite length was measured by immunostaining against Tuj1 . […]

[1] = tested on: Primary Dorsal Root Ganglia (DRG) neurons; experiment: TUNEL assay in primary DRG neurons upon NGF withdrawal; assay type: cell-based, mouse; conditions: 500 nM every 24 h, 48 h, NGF-neutralizing antibody
Experimental: Primary Dorsal Root Ganglia (DRG) neurons were isolated from P0-P1 mouse pups (C57BL/6J, The Jackson Laboratory, Bar Harbor, ME, USA) as described previously and cultured with Neurobasal medium (21103049 Gibco, Grand Island, NY, USA) containing 2% B27 (17504044, Gibco, Grand Island, NY, USA), 100 ng/mL NGF (N-100, Alomone Labs, Jerusalem, Israel), 1X GlutaMax (35050061, Gibco, Grand Island, NY, USA), 10 mM HEPES (15630080, Gibco, Grand Island, NY, USA), 1% Penicillin/Streptomycin (15070063, Gibco, Grand Island, NY, USA) and 10 μM 5-Fluoro-2′-deoxyuridine (343333, Calbiochem, Darmstadt, Germany). For TUNEL assay, cells were cultured for 14 days in vitro and then the medium was deprived of NGF before adding ENT-A013 (500 nM, every 24 h) along with NGF-neutralizing antibody (N8773, 1:500, Sigma-Aldrich, St. Louis, MO, USA). Cells were then incubated for 48 h before being fixed with 4% PFA and labelled with TUNEL (11684795910, F. Hoffmann–La Roche Ltd., Basel, Switzerland) following the manufacturer’s protocol. Subsequently, cells were immunostained against Tuj1 (1:2000, 801201, Biolegend, Inc., San Diego, CA, USA) and anti-mouse Cy3 (1:1000, Invitrogen, A10521, Waltham, MA, USA) and imaged with a Leica SP8 confocal microscope. […] Cells were then imaged by confocal microscopy and neurite length was measured using Fiji software (NIH, Bethesda, Maryland, USA).

T1 sequence (Q16288 32-839, species assumed): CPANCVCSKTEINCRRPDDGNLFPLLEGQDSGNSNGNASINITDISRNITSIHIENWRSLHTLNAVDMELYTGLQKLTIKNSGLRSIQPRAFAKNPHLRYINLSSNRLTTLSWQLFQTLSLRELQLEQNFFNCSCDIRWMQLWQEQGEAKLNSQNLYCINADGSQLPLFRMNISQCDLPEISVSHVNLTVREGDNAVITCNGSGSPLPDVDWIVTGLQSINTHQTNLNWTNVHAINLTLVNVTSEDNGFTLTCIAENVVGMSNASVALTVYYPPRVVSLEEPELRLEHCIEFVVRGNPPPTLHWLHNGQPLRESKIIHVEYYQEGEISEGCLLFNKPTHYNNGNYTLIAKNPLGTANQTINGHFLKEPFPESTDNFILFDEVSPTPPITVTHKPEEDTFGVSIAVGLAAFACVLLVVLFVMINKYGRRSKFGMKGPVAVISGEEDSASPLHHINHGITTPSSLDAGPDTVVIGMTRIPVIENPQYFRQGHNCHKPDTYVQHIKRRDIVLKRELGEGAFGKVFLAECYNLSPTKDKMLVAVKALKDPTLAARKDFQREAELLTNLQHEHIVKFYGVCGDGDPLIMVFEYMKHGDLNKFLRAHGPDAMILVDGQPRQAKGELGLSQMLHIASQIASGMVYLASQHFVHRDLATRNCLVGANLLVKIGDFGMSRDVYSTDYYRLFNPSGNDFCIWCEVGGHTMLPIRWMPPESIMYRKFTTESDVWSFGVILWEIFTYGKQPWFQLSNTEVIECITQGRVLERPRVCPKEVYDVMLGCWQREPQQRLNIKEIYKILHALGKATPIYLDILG

`CC12CCC(O)CC1=CCC1C2CCC2(C)C1CCC21CC1C=CBr` [ENT-A013, (2′R,3S,17S)-2′-(2-Bromovinyl)-5-Androstene-17,1′-Cyclopropan-3-ol] was tested, and the “TrkC phosphorylation (in words)” value (TrkC) was “did not induce phosphorylation” and the “NGF deprivation-induced apoptosis (TUNEL, in words)” value [1] was “significantly reverse the NGF deprivation-induced apoptosis”.
